Source: ChEMBL document CHEMBL1201862, “PubChem BioAssay data set” (2004)
The source made the active and inactive calls.

Tests used:
[1] = target: Nuclear receptor subfamily 5 group A member 2 (Homo sapiens, UniProt O00482); format: functional, cell-based;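 note: HEK293T cells transfected with LRH-1 and a StAR promoter luciferase reporter; potency for inhibitors that lower LRH-1 driven reporter light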
[2] = StAR promoter reporter inhibition counter-screen, dose response, counter-screen for LRH-1 inverse agonist project, cell-based, luminescence, luciferase reporter (AID 651969); format: functional
[3] = target: Steroidogenic factor 1 (Homo sapiens, UniProt Q13285); test: Counterscreen for inverse agonists of the liver receptor homolog-1 (LRH-1; NR5A2): Luminescence-based cell-based high throughput dose response assay to identify inverse agonists of the Steroidogenic Factor 1 Nuclear Receptor (SF1; NR5A1).; format: functional
[4] = target: Dual specificity tyrosine-phosphorylation-regulated kinase 1A (Rattus norvegicus, UniProt Q63470); format: biochemical, Homo sapiens
[5] = target: Long-chain-fatty-acid--AMP ligase FadD28 (Mycobacterium tuberculosis, UniProt P9WQ59); test: Fluorescence polarization aasay to screen for inhibitors that compete for the binding of FadD28 to a bisubstrate Measured in Biochemical System Using Plate Reader - 2147-01_Inhibitor_Dose_CherryPick_Activity.; format: functional, Mycobacterium tuberculosis H37Rv
[6] = target: Protein Wnt-3a (Mus musculus, UniProt P27467); test: SAR analysis of small molecule antagonists of Gli-SUFU in a Wnt3a luminescent reporter assay.; format: functional
[7] = target: T1, Rac GTPase-activating protein 1 (Homo sapiens, UniProt Q9H0H5); test: MgcRacGAP GTPase-activating activity inhibitors, confirmation, biochemical, ADP Hunter fluorescence, primary and confirmatory (AID 624330); format: functional
T1 sequence (Q9H0H5 whole entry): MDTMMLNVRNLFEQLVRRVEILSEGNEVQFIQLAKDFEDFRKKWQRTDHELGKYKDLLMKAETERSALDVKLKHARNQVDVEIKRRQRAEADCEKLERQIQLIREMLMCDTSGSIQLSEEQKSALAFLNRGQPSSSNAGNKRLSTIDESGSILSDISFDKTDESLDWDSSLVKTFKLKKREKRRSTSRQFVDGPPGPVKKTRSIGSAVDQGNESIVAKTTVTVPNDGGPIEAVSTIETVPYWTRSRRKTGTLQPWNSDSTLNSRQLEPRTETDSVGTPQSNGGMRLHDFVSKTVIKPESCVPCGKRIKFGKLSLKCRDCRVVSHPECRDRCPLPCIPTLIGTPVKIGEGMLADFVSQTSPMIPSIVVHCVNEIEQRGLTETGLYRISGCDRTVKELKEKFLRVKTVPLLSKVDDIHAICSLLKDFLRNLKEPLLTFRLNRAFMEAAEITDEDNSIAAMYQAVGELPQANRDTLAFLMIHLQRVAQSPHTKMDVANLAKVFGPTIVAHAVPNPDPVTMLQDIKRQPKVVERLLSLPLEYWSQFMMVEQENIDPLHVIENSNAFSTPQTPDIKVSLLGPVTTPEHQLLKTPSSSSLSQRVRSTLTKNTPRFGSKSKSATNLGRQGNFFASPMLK

[8] = target: Cytochrome P450 2C19 (Homo sapiens, UniProt P33261); test: Cytochrome panel assay with activity outcomes. Panel member name: p450-cyp2c19 Compounds with AC50 equal or less than 10 uM are considered active; format: functional; details: read-out: AC50
[9] = target: T2, DNA repair protein RAD52 homolog (Homo sapiens, UniProt P43351); format: functional, biochemical
T2 sequence (P43351 whole entry): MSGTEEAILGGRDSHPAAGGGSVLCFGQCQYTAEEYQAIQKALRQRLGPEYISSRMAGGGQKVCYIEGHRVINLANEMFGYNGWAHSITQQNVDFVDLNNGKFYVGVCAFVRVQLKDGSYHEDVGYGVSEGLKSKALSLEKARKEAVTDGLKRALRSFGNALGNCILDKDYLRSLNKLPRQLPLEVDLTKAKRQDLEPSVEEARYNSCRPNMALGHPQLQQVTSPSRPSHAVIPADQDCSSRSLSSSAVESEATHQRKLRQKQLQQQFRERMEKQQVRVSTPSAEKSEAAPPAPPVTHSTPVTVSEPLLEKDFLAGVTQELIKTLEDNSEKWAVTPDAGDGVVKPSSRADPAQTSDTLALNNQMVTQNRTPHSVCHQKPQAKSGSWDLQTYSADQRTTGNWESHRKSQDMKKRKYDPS

[10] = target: Glucose-6-phosphate 1-dehydrogenase (Homo sapiens, UniProt P11413); test: human G6PD enzyme inhibitors, dose response, selectivity assay for P. falciparum G6PD inhibitor project, biochemical, fluorescence (AID 504792); format: functional
[11] = HeLa cell cytotoxicity, dose response, cytotoxicity control for MgcRacGAP inhibitor project (AID 624300); format: functional
[12] = target: SWI/SNF-related matrix-associated actin-dependent regulator of chromatin subfamily A member 2 (Homo sapiens, UniProt P51531); test: Luminescence-based cell-based high throughput dose response assay to identify activators of the function of SWI/SNF related, matrix associated, actin dependent regulator of chromatin, subfamily a, member 2 (SMARCA2, BRM).; format: functional
[13] = Counterscreen for activators of the function of SWI/SNF related, matrix associated, actin dependent regulator of chromatin, subfamily a, member 2 (SMARCA2, BRM): Luminescence-based cell-based high throughput dose response assay to identify non-selective compounds using the VP16 reporter assay.; format: functional
[14] = target: Kallikrein-7 (Homo sapiens, UniProt P49862); test: Fluorescence Intensity-based biochemical primary high throughput dose response assay to identify activators of kallikrein-7 (K7) zymogen.
Kallikrein-7, sequence (P49862 whole entry): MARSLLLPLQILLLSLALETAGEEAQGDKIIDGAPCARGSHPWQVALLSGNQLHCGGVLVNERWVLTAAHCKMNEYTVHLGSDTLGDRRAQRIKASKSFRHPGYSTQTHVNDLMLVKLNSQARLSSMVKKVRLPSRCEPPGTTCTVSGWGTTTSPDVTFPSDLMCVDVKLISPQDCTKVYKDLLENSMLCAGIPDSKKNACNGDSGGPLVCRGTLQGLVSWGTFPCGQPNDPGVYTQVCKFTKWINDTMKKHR

Nuclear receptor subfamily 5 group A member 2, sequence (O00482 whole entry): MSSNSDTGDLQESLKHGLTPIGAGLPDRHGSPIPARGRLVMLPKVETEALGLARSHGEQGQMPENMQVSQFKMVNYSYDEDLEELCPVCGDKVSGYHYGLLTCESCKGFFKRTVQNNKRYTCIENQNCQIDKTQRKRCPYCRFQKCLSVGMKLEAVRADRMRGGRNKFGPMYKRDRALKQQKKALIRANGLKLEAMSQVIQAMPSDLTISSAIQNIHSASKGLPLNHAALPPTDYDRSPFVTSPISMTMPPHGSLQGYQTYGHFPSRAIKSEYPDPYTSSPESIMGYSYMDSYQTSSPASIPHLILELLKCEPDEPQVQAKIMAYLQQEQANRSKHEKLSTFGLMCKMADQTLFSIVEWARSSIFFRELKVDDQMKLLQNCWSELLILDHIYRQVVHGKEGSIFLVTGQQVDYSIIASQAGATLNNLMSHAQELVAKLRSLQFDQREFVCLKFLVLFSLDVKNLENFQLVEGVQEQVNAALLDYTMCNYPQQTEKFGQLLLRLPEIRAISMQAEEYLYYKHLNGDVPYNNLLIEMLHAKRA
Protein Wnt-3a, sequence (P27467 whole entry): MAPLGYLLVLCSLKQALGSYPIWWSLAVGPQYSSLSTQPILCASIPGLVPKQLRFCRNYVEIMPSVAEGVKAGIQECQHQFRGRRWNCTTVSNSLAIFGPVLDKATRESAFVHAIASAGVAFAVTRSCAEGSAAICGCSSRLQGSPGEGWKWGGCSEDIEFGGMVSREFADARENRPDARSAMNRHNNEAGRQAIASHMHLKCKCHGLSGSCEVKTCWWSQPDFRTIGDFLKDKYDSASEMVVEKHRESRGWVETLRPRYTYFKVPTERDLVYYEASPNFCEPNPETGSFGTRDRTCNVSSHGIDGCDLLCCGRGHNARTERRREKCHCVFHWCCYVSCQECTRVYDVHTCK
Steroidogenic factor 1, sequence (Q13285 whole entry): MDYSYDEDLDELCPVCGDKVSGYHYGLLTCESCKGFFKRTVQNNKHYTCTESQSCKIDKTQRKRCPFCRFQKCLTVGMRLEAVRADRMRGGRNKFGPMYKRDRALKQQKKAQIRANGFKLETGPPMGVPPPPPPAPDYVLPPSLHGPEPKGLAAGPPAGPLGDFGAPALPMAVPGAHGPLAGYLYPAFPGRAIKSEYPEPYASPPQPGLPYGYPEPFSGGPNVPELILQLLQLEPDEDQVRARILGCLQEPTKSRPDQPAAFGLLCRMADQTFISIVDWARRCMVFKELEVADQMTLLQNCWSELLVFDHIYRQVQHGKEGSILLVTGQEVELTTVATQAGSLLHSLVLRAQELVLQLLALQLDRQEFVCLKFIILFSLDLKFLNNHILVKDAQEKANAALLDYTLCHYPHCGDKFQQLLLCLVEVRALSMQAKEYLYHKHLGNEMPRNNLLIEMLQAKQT
Cytochrome P450 2C19, sequence (P33261 whole entry): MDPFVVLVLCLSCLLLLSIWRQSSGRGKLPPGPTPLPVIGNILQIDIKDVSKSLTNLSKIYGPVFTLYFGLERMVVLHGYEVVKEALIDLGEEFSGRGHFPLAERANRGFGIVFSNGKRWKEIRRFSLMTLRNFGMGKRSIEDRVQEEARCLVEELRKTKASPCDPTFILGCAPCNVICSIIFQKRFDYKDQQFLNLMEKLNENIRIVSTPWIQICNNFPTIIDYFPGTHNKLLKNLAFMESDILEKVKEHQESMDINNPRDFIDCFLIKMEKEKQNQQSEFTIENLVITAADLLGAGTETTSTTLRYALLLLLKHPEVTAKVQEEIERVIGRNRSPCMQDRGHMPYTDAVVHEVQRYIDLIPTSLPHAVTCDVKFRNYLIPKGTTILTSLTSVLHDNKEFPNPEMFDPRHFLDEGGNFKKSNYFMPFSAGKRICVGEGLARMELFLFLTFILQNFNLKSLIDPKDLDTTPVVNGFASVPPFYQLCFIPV
Long-chain-fatty-acid--AMP ligase FadD28, sequence (P9WQ59 whole entry): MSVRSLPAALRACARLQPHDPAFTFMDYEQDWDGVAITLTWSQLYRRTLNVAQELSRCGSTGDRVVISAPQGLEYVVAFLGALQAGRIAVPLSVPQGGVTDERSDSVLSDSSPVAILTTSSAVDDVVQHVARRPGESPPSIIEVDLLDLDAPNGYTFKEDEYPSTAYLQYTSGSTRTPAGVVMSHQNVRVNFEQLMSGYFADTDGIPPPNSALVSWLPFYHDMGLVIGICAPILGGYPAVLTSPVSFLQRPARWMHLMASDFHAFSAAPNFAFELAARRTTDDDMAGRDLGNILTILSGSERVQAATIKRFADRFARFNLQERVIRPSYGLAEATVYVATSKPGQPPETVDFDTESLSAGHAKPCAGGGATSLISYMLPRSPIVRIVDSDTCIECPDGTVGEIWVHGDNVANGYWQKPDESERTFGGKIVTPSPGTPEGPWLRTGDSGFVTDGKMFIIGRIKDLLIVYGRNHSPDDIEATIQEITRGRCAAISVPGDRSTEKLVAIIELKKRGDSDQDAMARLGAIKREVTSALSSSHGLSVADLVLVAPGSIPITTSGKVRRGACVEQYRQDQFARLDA
Glucose-6-phosphate 1-dehydrogenase, sequence (P11413 whole entry): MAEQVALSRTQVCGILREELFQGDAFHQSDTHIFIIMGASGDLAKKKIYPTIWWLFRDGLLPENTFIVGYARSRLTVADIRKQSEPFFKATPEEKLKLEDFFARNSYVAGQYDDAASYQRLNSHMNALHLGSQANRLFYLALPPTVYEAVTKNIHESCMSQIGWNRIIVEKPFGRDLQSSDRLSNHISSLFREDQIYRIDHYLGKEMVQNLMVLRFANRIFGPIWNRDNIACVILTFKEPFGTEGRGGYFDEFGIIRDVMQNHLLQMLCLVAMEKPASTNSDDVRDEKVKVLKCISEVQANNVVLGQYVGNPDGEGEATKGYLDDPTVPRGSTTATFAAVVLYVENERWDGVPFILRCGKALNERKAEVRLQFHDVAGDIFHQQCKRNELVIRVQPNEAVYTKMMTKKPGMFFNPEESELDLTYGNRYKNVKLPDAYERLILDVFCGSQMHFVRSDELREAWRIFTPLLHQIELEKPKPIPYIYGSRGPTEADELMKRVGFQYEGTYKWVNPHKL
SWI/SNF-related matrix-associated actin-dependent regulator of chromatin subfamily A member 2, sequence (P51531 whole entry): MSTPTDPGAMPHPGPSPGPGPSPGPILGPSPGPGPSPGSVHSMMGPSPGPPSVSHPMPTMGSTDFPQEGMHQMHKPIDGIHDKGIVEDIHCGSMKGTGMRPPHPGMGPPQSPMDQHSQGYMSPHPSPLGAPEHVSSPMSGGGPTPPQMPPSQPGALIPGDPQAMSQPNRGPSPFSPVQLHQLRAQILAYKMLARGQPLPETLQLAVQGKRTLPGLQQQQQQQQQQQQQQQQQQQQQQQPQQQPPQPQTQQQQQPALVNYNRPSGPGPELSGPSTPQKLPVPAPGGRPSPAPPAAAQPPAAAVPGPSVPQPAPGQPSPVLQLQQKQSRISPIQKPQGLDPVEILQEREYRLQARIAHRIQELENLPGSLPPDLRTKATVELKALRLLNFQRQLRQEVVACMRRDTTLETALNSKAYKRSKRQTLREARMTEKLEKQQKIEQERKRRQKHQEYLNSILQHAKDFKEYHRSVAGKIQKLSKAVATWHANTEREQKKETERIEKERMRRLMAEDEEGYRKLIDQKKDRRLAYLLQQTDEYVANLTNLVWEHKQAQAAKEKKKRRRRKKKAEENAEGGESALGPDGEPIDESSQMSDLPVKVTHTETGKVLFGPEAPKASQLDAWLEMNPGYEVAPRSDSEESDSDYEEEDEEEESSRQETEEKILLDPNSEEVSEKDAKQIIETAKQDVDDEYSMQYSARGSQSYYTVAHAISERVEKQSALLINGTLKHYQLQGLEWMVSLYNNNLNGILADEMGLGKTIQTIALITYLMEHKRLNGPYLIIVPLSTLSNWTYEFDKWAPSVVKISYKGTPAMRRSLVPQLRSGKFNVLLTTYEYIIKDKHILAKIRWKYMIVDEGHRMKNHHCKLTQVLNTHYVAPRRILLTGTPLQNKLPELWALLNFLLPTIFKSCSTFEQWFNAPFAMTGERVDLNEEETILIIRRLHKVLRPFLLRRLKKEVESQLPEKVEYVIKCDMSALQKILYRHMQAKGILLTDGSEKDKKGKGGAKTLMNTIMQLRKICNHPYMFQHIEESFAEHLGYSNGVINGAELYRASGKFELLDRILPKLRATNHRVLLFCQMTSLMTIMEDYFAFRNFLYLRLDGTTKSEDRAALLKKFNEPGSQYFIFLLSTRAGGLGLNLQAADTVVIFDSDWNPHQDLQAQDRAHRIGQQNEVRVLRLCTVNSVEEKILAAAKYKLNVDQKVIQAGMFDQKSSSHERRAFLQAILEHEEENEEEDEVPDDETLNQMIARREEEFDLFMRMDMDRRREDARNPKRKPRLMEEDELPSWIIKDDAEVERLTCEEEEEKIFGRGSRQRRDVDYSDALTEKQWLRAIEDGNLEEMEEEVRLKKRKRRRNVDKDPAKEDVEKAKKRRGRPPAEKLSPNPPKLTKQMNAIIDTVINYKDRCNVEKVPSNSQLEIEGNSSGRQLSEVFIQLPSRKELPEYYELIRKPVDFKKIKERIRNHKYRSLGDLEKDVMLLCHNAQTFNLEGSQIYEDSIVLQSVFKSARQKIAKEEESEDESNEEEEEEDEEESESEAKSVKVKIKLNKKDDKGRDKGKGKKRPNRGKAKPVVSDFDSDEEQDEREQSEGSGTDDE

Cc1ccc(-c2nn3c(C)nnc3s2)cc1NC(=O)c1cccs1
IC50 [1]: 1.13 µM (active)
IC50 [2]: 35.9 µM (inactive)
IC50 [3]: 0.684 µM (active)

COc1cccc(/C=N/n2c(S)nnc2C2CCCCC2)c1O
AC50 [4]: 6.14 µM (active)
AC50 [5]: 16.8 µM (active)

Cc1ccc(NC(=O)CN2C(=O)NC(C)(CC(C)C)C2=O)c(Br)c1 (centres undefined)
IC50 [1]: 11.7 µM (inactive)
IC50 [2]: 35.9 µM (inactive)
IC50 [3]: 8.09 µM (active)

COc1cc(OC)cc(C(=O)Nc2cc(N3CCCC3)ncn2)c1
IC50 [6]: > 21.8 µM (inactive)

CCN(CC)c1cc(NC(=O)c2ccc(Br)o2)ncn1
IC50 [6]: > 21.8 µM (inactive)

COc1ccc2nc3cc(Cl)ccc3c(Nc3ccc(O)c(CN4CCN(C)CC4)c3)c2c1
IC50 [7]: 45.4 µM (active)
AC50 [8]: 2.51 µM (inconclusive)
AC50 [9]: < 150 nM (active)
AC50 [4]: 7.7 µM (active)
IC50 [10]: > 80 µM (inactive)
CC50 [11]: 25.6 µM (active)
EC50 [12]: > 91.1 µM (inactive)
EC50 [13]: > 91.1 µM (inactive)
EC50 [14]: > 69.5 µM (inactive)
